From ChEMBL document CHEMBL3046519, “Synthesis and biological evaluation of some pyrazole derivatives as anti-inflammatoryantibacterial agents” (2012)
Converted amounts (≈) assume the structure as drawn.

Legend:
Bacillus subtilis [1] = test: Antibacterial activity against Bacillus subtilis MTCC 121 by NCCLS broth macrodilution method; format: functional
Pseudomonas aeruginosa = test: microbe, parasite or virus in culture; conditions: MTCC 741, 24 h, read-out: DIZ
Bacillus subtilis [2] = test: Antibacterial activity against Bacillus subtilis MTCC 121 at 4 mg/ml after 24 hr by agar well diffusion method; format: functional; conditions: MTCC 121, 24 h, read-out: DIZ
Staphylococcus aureus [3] = test: Antibacterial activity against Staphylococcus aureus MTCC 96 by NCCLS broth macrodilution method; format: functional
Staphylococcus aureus [4] = test: Antibacterial activity against Staphylococcus aureus MTCC 96 at 4 mg/ml after 24 hr by agar well diffusion method; format: functional; conditions: MTCC 96, 24 h, read-out: DIZ
Rattus norvegicus [5] = test: Anti-inflammatory activity in Rattus norvegicus Wistar albino (rat) assessed as inhibition of carrageenan-induced paw edema at 10 mg/kg, ip administered for 30 min prior to carrageenan challenge measured at 3 hr relative to control; format: functional; conditions: route intraperitoneal
Rattus norvegicus [6] = species on record: Rattus norvegicus; test: animal or person; conditions: Wistar albino, ip, read-out: INH
Rattus norvegicus [7] = species on record: Rattus norvegicus; test: animal or person; conditions: Wistar albino, ip, read-out: INH; remark: listed apart in the source
Rattus norvegicus [8] = test: Anti-inflammatory activity in Rattus norvegicus Wistar albino (rat) assessed as inhibition of carrageenan-induced paw edema at 10 mg/kg, ip administered for 30 min prior to carrageenan challenge measured at 4 hr relative to control; format: functional; conditions: route intraperitoneal

SMILES	MIC (Bacillus subtilis [1]) [µg/mL]	zone of inhibition at 4000 µg/mL (Pseudomonas aeruginosa) [mm]	zone of inhibition at 4000 µg/mL (Bacillus subtilis [2]) [mm]	MIC (Staphylococcus aureus [3]) [µg/mL]	zone of inhibition at 4000 µg/mL (Staphylococcus aureus [4]) [mm]	inhibition in vivo at 10 mg/kg (Rattus norvegicus [5]) [%]	inhibition in vivo at 10 mg/kg (Rattus norvegicus [6]) [%]	inhibition in vivo at 10 mg/kg (Rattus norvegicus [7]) [%]	inhibition in vivo at 10 mg/kg (Rattus norvegicus [8]) [%]
O=C(O)c1cn(C2CC2)c2cc(N3CCNCC3)c(F)cc2c1=O [CIPROFLOXACIN]	5 (≈ 15.1 µM)	23.3	25.6	5 (≈ 15.1 µM)	26.3				
COc1ccc2c(c1)c(CC(=O)O)c(C)n2C(=O)c1ccc(Cl)cc1 [INDOMETHACIN]						78	79	41	78
